Data as given in US3965109A, “Certain aryl amino pyridines” (priority 1971, dated 1976).

Experiments:
Type in all cases: in vivo
[1] = tested on: Piricularia oryzae (rice); settings: 100 ppm spray and drench; 7 days
[2] = tested on: Plasmopara viticola (vine); assay: Fungicidal test against foliar disease C (foliage spray plus soil drench); settings: 100 ppm spray and drench; 10 days
[3] = tested on: Phytophthora infestans (tomato); settings: 100 ppm spray and drench; 3 days
[4] = tested on: Puccinia recondita (wheat); assay: Fungicidal test against foliar disease A (foliage spray plus soil drench); settings: 100 ppm spray and drench; 10 days
[5] = tested on: Uncinula necator (vine); assay: Fungicidal test against foliar disease D (foliage spray plus soil drench); settings: 100 ppm spray and drench; 10 days
[6] = tested on: Megoura viceae; assay: Pest toxicity test; settings: 0.1% by weight; broad bean; 2 days
[7] = tested on: Lettuce; assay: Herbicidal test, pre- and post-emergence
[8] = tested on: Aphis fabae; assay: Pest toxicity test; settings: 0.1% by weight; broad bean; 2 days
[9] = tested on: Aedes aegypti (mosquito larvae); assay: Pest toxicity test; settings: for Mortality grading (kill): 0.01% by weight, water, 1 day
[10] = tested on: Musca domestica (houseflies); assay: Pest toxicity test, contact test; settings: 0.1% by weight; milk/sugar; 2 days; flies sprayed directly
[11] = tested on: Barley; assay: Further herbicidal test, various rates; settings: 5 lb/acre; scale 0 to 5 (complete kill)
[12] = tested on: Oat; assay: Further herbicidal test, various rates; settings: 5 lb/acre; scale 0 to 5 (complete kill)
[13] = tested on: Sugar beet; assay: Further herbicidal test, various rates; settings: 5 lb/acre; scale 0 to 5 (complete kill)
[14] = tested on: Pieris brassicae (cabbage white caterpillars); assay: Pest toxicity test; settings: 0.1% by weight, 2 days
[15] = tested on: Wheat; assay: Herbicidal test, pre- and post-emergence
[16] = tested on: Tetranychus telarius (red spider mites, adults); assay: Pest toxicity test; settings: 0.1% by weight; French bean; 3 days
[17] = tested on: Phaedon cochleariae (mustard beetles); assay: Pest toxicity test
[18] = tested on: Onion; assay: Further herbicidal test, various rates; settings: 5 lb/acre; scale 0 to 5 (complete kill)
[19] = tested on: Plutella maculipennis (diamond back moth larvae); assay: Pest toxicity test
[20] = tested on: Maize; assay: Herbicidal test, pre- and post-emergence
[21] = tested on: Tomato; assay: Herbicidal test, pre- and post-emergence
[22] = tested on: Rice; assay: Further herbicidal test, various rates; settings: 5 lb/acre; scale 0 to 5 (complete kill)
[23] = tested on: Aedes aegypti (mosquito adults); assay: Pest toxicity test; settings: 0.01% by weight; plywood; 1 day
[24] = tested on: Carrot; assay: Further herbicidal test, various rates; settings: 5 lb/acre; scale 0 to 5 (complete kill)
[25] = tested on: Kale; assay: Further herbicidal test, various rates; settings: 5 lb/acre; scale 0 to 5 (complete kill)
[26] = tested on: Pea; assay: Further herbicidal test, various rates; settings: 5 lb/acre; scale 0 to 5 (complete kill)
[27] = tested on: Tetranychus telarius (red spider mites, eggs); assay: Pest toxicity test; settings: 0.1% by weight; French bean; 3 days
[28] = 10 lb/acre (11.2 kg/ha), scale 0 (no effect) to 3 (complete kill)
[29] = 10 kg/ha, scale 0 to 3 (complete kill)
[30] = 0.1% by weight, mustard/paper, 2 days

Compound: Fc1nc(F)c(Cl)c(Nc2cccc(C(F)(F)F)c2)c1Cl [Compound 17, 3,5-Dichloro-2,6-difluoro-4(3-trifluoromethylanilino)pyridine]
- Amount of disease grading, disease E [1]: 0 (61 to 100)
- Amount of disease grading, disease C [2]: 3 (0 to 5)
- Amount of disease grading, disease B [3]: 1 (26 to 60)
- Amount of disease grading, disease A [4]: 0 (61 to 100)
- Amount of disease grading, disease D [5]: 0 (61 to 100)

Compound: Fc1nc(F)c(Cl)c(Nc2c(F)c(F)c(F)c(F)c2F)c1Cl [Compound 10, 3,5-Dichloro-2,6-difluoro-4(pentafluoroanilino)pyridine]
- Mortality grading (kill) [6]: 0 (O represents less than 30% kill)
- Damage to plants, post-emergence [7, 28]: 3
- Damage to plants, pre-emergence [7, 28]: 2
- Mortality grading (kill) [8]: 0 (O represents less than 30% kill)
- Mortality grading (kill) [9]: 2 (2 represents 60 - 90% kill)
- Mortality grading (kill), contact test [10]: 0 (O represents less than 30% kill)
- Damage to plants, post-emergence [11]: 0
- Damage to plants, pre-emergence [11]: 3
- Damage to plants, post-emergence [12]: 0
- Damage to plants, pre-emergence [12]: 0
- Damage to plants, post-emergence [13]: 3
- Damage to plants, pre-emergence [13]: 0
- Mortality grading (kill) [14]: 0 (O represents less than 30% kill)
- Damage to plants, post-emergence [15, 28]: 1
- Damage to plants, pre-emergence [15, 28]: 0
- Mortality grading (kill) [16]: 3 (3 represents over 90% kill)
- Mortality grading (kill) ([17]; in vivo): 0 (key: O represents less than 30% kill; 1 represents 30 - 49% kill; 2 represents 60 - 90% kill; 3 represents over 90% kill; C indicates a chemosterilant effect.; A indicates an antifeeding effect.)
- Damage to plants, post-emergence [18]: 2
- Damage to plants, pre-emergence [18]: 0
- Mortality grading (kill) ([19]; in vivo): 0 (key: O represents less than 30% kill; 1 represents 30 - 49% kill; 2 represents 60 - 90% kill; 3 represents over 90% kill; C indicates a chemosterilant effect.; A indicates an antifeeding effect.)
- Damage to plants, post-emergence [20, 28]: 0
- Damage to plants, pre-emergence [20, 28]: 0
- Damage to plants, post-emergence [21, 28]: 3
- Damage to plants, pre-emergence [21, 28]: 1
- Damage to plants, post-emergence [22]: 0
- Mortality grading (kill) [23]: 2 (2 represents 60 - 90% kill)
- Damage to plants, post-emergence [24]: 2
- Damage to plants, pre-emergence [24]: 1
- Damage to plants, post-emergence [25]: 3
- Damage to plants, pre-emergence [25]: 1
- Damage to plants, post-emergence [26]: 0
- Damage to plants, pre-emergence [26]: 3

Compound: O=[N+]([O-])c1ccc(Nc2c(F)c(F)nc(F)c2Cl)c([N+](=O)[O-])c1 [Compound 38, 3-Chloro-4(2,4-dinitroanilino)-2,5,6-trifluoropyridine]
- Mortality grading (kill) [6]: 0 (O represents less than 30% kill)
- Damage to plants, post-emergence [7, 29]: 3
- Damage to plants, pre-emergence [7, 29]: 3
- Mortality grading (kill) [8]: 0 (O represents less than 30% kill)
- Mortality grading (kill) [9]: 3 (3 represents over 90% kill)
- Amount of disease grading, disease E (Table 4) [1]: 2 (6 to 25)
- Mortality grading (kill), contact test [10]: 0 (O represents less than 30% kill)
- Amount of disease grading, disease C (Table 4) [2]: 3 (0 to 5)
- Mortality grading (kill) [14]: 3 (3 represents over 90% kill)
- Damage to plants, post-emergence [15, 29]: 0
- Damage to plants, pre-emergence [15, 29]: 2
- Mortality grading (kill) [16]: 3 (3 represents over 90% kill)
- Mortality grading (kill) ([17]; in vivo): 0 (key: O represents less than 30% kill; 1 represents 30 - 49% kill; 2 represents 60 - 90% kill; 3 represents over 90% kill; C indicates a chemosterilant effect.; A indicates an antifeeding effect.)
- Mortality grading (kill) ([19]; in vivo): 0 (key: O represents less than 30% kill; 1 represents 30 - 49% kill; 2 represents 60 - 90% kill; 3 represents over 90% kill; C indicates a chemosterilant effect.; A indicates an antifeeding effect.)
- Damage to plants, post-emergence [20, 29]: 0
- Damage to plants, pre-emergence [20, 29]: 0
- Mortality grading (kill) [27]: 3 (3 represents over 90% kill)
- Damage to plants, post-emergence [21, 29]: 3
- Damage to plants, pre-emergence [21, 29]: 3
- Mortality grading (kill) [23]: 0 (O represents less than 30% kill)
- Amount of disease grading, disease A (Table 4) [4]: 1 (26 to 60)
- Amount of disease grading, disease D (Table 4) [5]: 3 (0 to 5)

Compound: CN(C)S(=O)(=O)c1cc(Cl)c(Nc2c(Cl)c(F)nc(F)c2Cl)cc1Cl [Compound 31, 3,5-Dichlor-2,6-difluoro-4(2,5-dichlor-4-N,N-dimethylsulphamoylanilino)pyridine]
- Amount of disease grading, disease E (Table 4) [1]: 0 (61 to 100)
- Amount of disease grading, disease C (Table 4) [2]: 3 (0 to 5)
- Amount of disease grading, disease B (Table 4) [3]: 0 (61 to 100)
- Amount of disease grading, disease A (Table 4) [4]: 2 (6 to 25)
- Amount of disease grading, disease D (Table 4) [5]: 3 (0 to 5)

Compound: O=[N+]([O-])c1cc([N+](=O)[O-])c(Nc2c(F)c(F)nc(F)c2F)cc1F [Compound 39, 4(2,4-Dinitro-5-fluoranilino)tetrafluoropyridine]
- Amount of disease grading, disease E (Table 4) [1]: 1 (26 to 60)
- Amount of disease grading, disease C (Table 4) [2]: 3 (0 to 5)
- Amount of disease grading, disease B (Table 4) [3]: 2 (6 to 25)
- Amount of disease grading, disease A (Table 4) [4]: 1 (26 to 60)
- Amount of disease grading, disease D (Table 4) [5]: 0 (61 to 100)

Compound: O=[N+]([O-])c1ccc(Nc2c(Cl)c(F)nc(F)c2Cl)cc1C(F)(F)F [Compound 36, 3,5-Dichloro-2,6-difluoro-4(4-nitro-3-trifluoromethylanilino) pyridine]
- Amount of disease grading, disease E (Table 4) [1]: 1 (26 to 60)
- Amount of disease grading, disease C (Table 4) [2]: 3 (0 to 5)
- Amount of disease grading, disease B (Table 4) [3]: 2 (6 to 25)
- Amount of disease grading, disease A (Table 4) [4]: 2 (6 to 25)
- Amount of disease grading, disease D (Table 4) [5]: 0 (61 to 100)

Compound: CNC(=O)N(c1c(F)c(F)c(C#N)c(F)c1F)c1c(Cl)c(F)nc(OC)c1Cl [Compound 46]
- Mortality grading (kill) [6]: 0 (O represents less than 30% kill)
- Mortality grading (kill) [8]: 0 (O represents less than 30% kill)
- Mortality grading (kill) [9]: 3 (3 represents over 90% kill)
- Mortality grading (kill), contact test [10]: 0 (O represents less than 30% kill)
- Mortality grading (kill) [14]: 0 (O represents less than 30% kill)
- Mortality grading (kill) [16]: 2 (2 represents 60 - 90% kill)
- Mortality grading (kill) [17, 30]: 0 (O represents less than 30% kill)
- Mortality grading (kill) [19, 30]: 0 (O represents less than 30% kill)
- Mortality grading (kill) [27]: 0 (O represents less than 30% kill)
- Mortality grading (kill) [23]: 0 (O represents less than 30% kill)

Compound: Fc1nc(F)c(Cl)c(Nc2c(Cl)cc(Cl)cc2Cl)c1Cl [Compound 7, 3,5-Dichloro-2,6-difluoro-4(2,4,6-trichloroanilino)pyridine]
- abnormal growth effects in larva of mosquitos ([9]; in vivo): abnormal growth effects
- Amount of disease grading, disease E [1]: 0 (61 to 100)
- Amount of disease grading, disease C [2]: 0 (61 to 100)
- Amount of disease grading, disease B [3]: 0 (61 to 100)
- Amount of disease grading, disease A [4]: 2 (6 to 25)
- Amount of disease grading, disease D [5]: 0 (61 to 100)

Compound: Fc1nc(F)c(Cl)c(Nc2ccccc2)c1Cl [Compound 2, 4-Anilino-3,5-dichloro-2,6-difluoropyridine]
- Mortality grading (kill) [6]: 0 (O represents less than 30% kill)
- Mortality grading (kill) [8]: 0 (O represents less than 30% kill)
- Mortality grading (kill) [9]: 0 (O represents less than 30% kill)
- Mortality grading (kill), contact test [10]: 0 (O represents less than 30% kill)
- Mortality grading (kill) [14]: 0 (O represents less than 30% kill)
- Mortality grading (kill) [16]: 3 (3 represents over 90% kill)
- Mortality grading (kill) [17, 30]: 0 (O represents less than 30% kill)
- Mortality grading (kill) [19, 30]: 0 (O represents less than 30% kill)
- Mortality grading (kill) [27]: 0 (O represents less than 30% kill)
- Mortality grading (kill) [23]: 0 (O represents less than 30% kill)
